Literature values in patent US7713673B2, “Fixing liquid, toner fixing method, toner fixing device, image forming method, and image forming apparatus” (priority 2005, dated 2010).

Conditions: acute oral toxicity; given in brackets as a material property of the component

| Structure (SMILES) | LD50 [mg/kg] |
| --- | --- |
| CCCCOC(=O)CCCCCCCCC(=O)OCCCC [dibutyl sebacate] | 12800 |
| CCOCCOC(=O)CCC(=O)OCCOCC [diethoxyethyl succinate] | 5000 |
| CC(O)CCO (stereo not shown) [1,3-butanediol] | 10000 |
| CC(C)COC(=O)CCCCC(=O)OCC(C)C [diisobutyl adipate] | 12800 |
| CCO [ethanol] | 15000 |
| CCCCCCCCCCCC(=O)OCC [ethyl laurate] | 5000 |
| CC(O)CO (stereo not shown) [propylene glycol] | 15000 |
